13 molecules from patent US20140328940A1, “MODULATION OF AXON DEGENERATION” (Genentech, Inc., priority 2009, published 2014) can be followed below.

Type in all cases: cell-based, mouse
Assay [1] deals with DRG explants. Put plainly: pan-JNK inhibitors in NGF withdrawal assay on DRG explants. The following applies: for concentration at which most protective: DRG explants, NGF withdrawal; for protection of DRG explants from NGF-dependent degeneration: treated with anti-NGF and inhibitor. How it is done: If DLK inhibition protects neurons from degeneration through limiting the phosphorylation of JNK2 and JNK3, then inhibitors of JNK2 or JNK3 should also protect neurons from cell death and axon degeneration. The ability of direct JNK inhibition to protect neurons against NGF withdrawal-dependent degeneration was also assessed. DRG explants were treated with anti-NGF and either pan-JNK inhibitor JNKV or JNKVIII, prior to assessment in the NGF withdrawal assay described above.

Assay [2] relates to DRG neurons (axon vs. cell body compartment). Put plainly: Campenot chamber local axon degeneration (anti-NGF in axon compartment). How it is done:
Teflon dividers (Tyler Research) were cleaned by washing in water and wiping them clean of any residual grease. Dividers were then soaked in Nochromix (Godax Laboratories)/sulfuric acid overnight, rinsed five times in distilled and autoclaved water (SQ water), boiled for 30 minutes, and then air-dried before use
Mouse laminin (5 μg/ml in sterile filtered water; Invitrogen) was added to PDL coated 35 mm dishes (BD Biosciences) and they were incubated for 1 hour at 37° C., followed by two rinses in SQ water. The dishes were vacuum-dried and then air-dried in a laminar flow hood for 15 minutes. Prepared dishes were then scored with a pin rake (Tyler Research). […] High vacuum grease (VWR) was added to each Teflon divider under a dissection scope. The laminin coated PDL dishes were inverted and dropped onto the Teflon divider, with additional pressure added by use of a toothpick in the non-track-containing regions. Dishes were incubated for 1 hour at 37° C. Five hundred microliters of NBM+MC (50 ng/ml NGF) solution was added to each of the side compartments, and a grease barrier was added in front of the center cell slot.
Free E13.5 spinal cords were dissected from mouse embryos and placed into NBM+MC (25 ng/ml NGF) solution. DRGs were detached from the spinal cord with a tungsten needle. An NBM+MC-lubricated P200 pipette was used to move DRGs into a 1.5 ml tube. DRGs were pelleted with a tabletop centrifuge for 30 seconds. The supernate was discarded and 0.05% Trypsin/EDTA (cold) was added. The pellet was resolubilized with a pipette and incubated at 37° C. for 15 minutes with constant agitation (650 RPM). The sample was again centrifuged and the supernate discarded. The pellet was resuspended in warm NBM+MC (50 ng/ml NGF) solution and triturated with a flamed glass pipette 20 times, followed by trituration with a fire-bored glass pipette another 20 times. The samples were again centrifuged and the resulting pellets were resuspended in 0.5 ml NBM+MC (50 ng/ml NGF) solution. The cells were diluted to a final concentration of 2.5×10^6 cells/ml. The cell suspensions were loaded into a 1 ml syringe with a 22 gauge needle. The center slot of the Campenot divider was filled using the syringe (to a volume of at least 50 μl). The Campenot chamber was incubated overnight at 37° C. 2.5 ml NGF+MC (50 ng/ml NGF) solution was added to the center compartment and the grease gate was removed. The outer medium (cell body compartment) was replaced after three days with 2.5 ml NBM+MC medium (with 25 ng/ml NGF). After five days in culture, one distal compartment was washed three times with warmed NBM+MC (no NGF) solution. After the third wash, 500 μl NBM+MC (no NGF) solution was added to the axon compartment in combination with either 0.5% DMSO or an inhibitor. The cell body compartment was replaced with 2.5 ml NBM+MC medium (with 25 ng/ml NGF) containing either 0.5% DMSO or inhibitor.
After 28 hours of anti-NGF antibody treatment, 8% PFA/30% sucrose solution (see above) was added directly to the culture medium at a 1:1 dilution and incubated for 30 minutes. The Teflon divider was removed after the first 15 minutes of addition. The system was washed once with 2.5 ml PBS prior to immunostaining. Neurons were blocked in 5% BSA/0.2% triton in PBS for 30 minutes. The primary antibody Tuj1 (Covance) was added to a final dilution of 1:1000 in PBS containing 2% BSA and incubated overnight at 4° C. The dish was washed once with PBS. […] The dish was washed twice with PBS, and a 22×22 mm coverslip (VWR) was added with 350 μl of fluoromount G (Electron Microscopy Sciences). The neurons were visualized by use of a fluorescence microscope.
As described above, E13.5 DRGs were isolated and grown for 5 days in a Campenot chamber.

Assay [3] deals with DRGs. Put plainly: anti-NGF antibody (NGF withdrawal) screen for inhibitors of axon degeneration in DRG explants. The conditions noted are these: inhibitor 100 μM or 10 μM added 1 hour before 25 μg/ml anti-NGF; 20 hours; actin stain. How it is done:
The anti-NGF antibody model described above in Example 1 was used in a screen for inhibitors of neuron or axon degeneration. A library of more than 400 small molecules (Tocris Bioscience) was tested to see which, if any, modulate degeneration observed in the presence of anti-NGF antibodies.
Mouse E13.5 embryos were dissected and placed into L15 medium (Invitrogen). The spinal cord was dissected out from the embryos with DRGs attached. The spinal cords with DRGs attached were placed into L15 medium+5% goat serum (Gibco) on ice. The DRGs were removed using a tungsten needle and the remaining spinal cord was disposed of. Eight well slides were filled with N3-F12 solution (23 ml Ham's F12, 1 ml N3 supplement, and 1 ml 1 M glucose) to which was added 25 ng/ml NGF (Roche). (N3 supplement was made by dilution of N3 100× concentrate, which was made by mixing the following ingredients, in the following order: 5.0 ml Hank's buffered saline solution (HBSS; Ca, Mg free; Invitrogen), 1.0 ml bovine serum albumin (10 mg/ml in HBSS=150 μm), 2.0 ml Transferrin (T1147-1G, human, 100 mg/ml in HBSS=1.1 mM), 1.0 ml sodium selenite (S9133-1MG, 0.01 mg/ml in HBSS 58 μM), 0.4 ml putrescine dihydrochloride (P5780-5G, 80 mg/ml in HBSS=500 mM), 0.2 ml progesterone (P8783-5G, 0.125 mg/ml in absolute ethanol=400 μM), 0.02 ml corticosterone (C2505-500MG, 2 mg/ml in absolute ethanol=5.8 mM), 0.1 ml triiodothyonine, sodium salt (T6397-100MG, 0.2 mg/ml in 0.01 N NaOH=300 μM), 0.4 ml insulin (16634-250MG, bovine pancreas, 241 U/mg, 25 mg/ml in 20 mM HCl=4.4 mM), for a total volume of 10.02 ml (can be stored at −20° C.). An N3 supplement stock was made by combining the following: 10 ml Pen/Strep (100×, Gibco), 10 ml glutamine (200 mM, Gibco), 10 ml MEM vitamins (100×, Gibco), 10 ml N3 concentrate (100×, see above), for a total volume of 40 ml. The mixture was filter sterilized using a 0.22 μm filter, and 1-2 ml aliquots were stored at −20° C.).
The DRGs were sectioned into halves and placed in the center of each well of an 8-chamber slide (BD Biocoat PDL/Laminin coated glass, Becton Dickinson). The DRGs were permitted to attach to the slide at room temperature for 5-10 minutes, followed by an overnight incubation at 37° C. Inhibitors of choice were added at a concentration of 100 μM (top row) or 10 μM (bottom row) 1 hour before adding anti NGF antibodies. The anti-NGF antibodies were added to the right half of the slide (4 wells) at a concentration of 25 μg/ml. After incubation for 20 hours at 37° C., the slides were fixed with 30% sucrose/8% paraformaldehyde (PFA) by adding 250 μl of the fix solution directly to the 250 μl of culture medium. (To make the 30% sucrose/8% PFA solution, the following ingredients were added to a 600 ml beaker including a stir bar: 250 ml 16% PFA (cat#15710-S, Electron Microscopy Sciences), 50 ml 10×PBS pH 7.4, and 150 g sucrose. The solution was mixed under low heat until dissolved, and then 6-8 drops of 1 M NaOH were added to bring the pH to 7.4. The volume was then brought to 500 ml with water in a graduated cylinder. The solution was mixed well, placed in aliquots, and frozen.) The s ides were fixed for 30 minutes, followed by washing once with PBS. All cells were labeled with an actin stain (Alexa-568 conjugated phalloidin; 1:40; Invitrogen), a membrane dye (DiO; 1:200; Invitrogen), and a DNA stain (Hoechst 33258; 1:10,000; Invitrogen) in 0.1% Triton and 1% goat serum for 2 hours at room temperature. […]

For assay [4], the system named is cerebellar granule neurons (CGNs). Briefly: serum deprivation/KCl reduction degeneration of cerebellar granule neurons. The following applies: 5 μM; 5 mM KCl, 24 hours.
Where [5] appears, read: inhibitor 5 μM in axon compartment.
[6] abbreviates: inhibitor 5 μM in cell body compartment.

The structures appear in SMILES notation. Entries after “also recorded” stand apart in the source; their conditions may differ. *1 amine or outer side, *2 acyl side, *3 side chain or, on linkers, in order; H or OH if unused. Where a SMILES comes first, the peptide text is derived from it. Bridges are numbered along the chain shown (N, C = ends). Roman numbers before positions name the chains, in order. [ ]: non-standard residue; d: D form. Actinocin(9to1) = Cc1c2oc3c(C)ccc(C(=O)[*:1])c3nc-2c(C(=O)[*:2])c(N)c1=O; NMeV = CN[C@H](C(=O)O)C(C)C; Sar = CNCC(=O)O

With `CCOc1nc(NC(=O)Cc2cc(OC)ccc2OC)cc(N)c1C#N` [JNKVIII], in assay [1], the “concentration at which most protective” value worked out at 4 µM and the “protection of DRG explants from NGF-dependent degeneration” value is recorded as “able to protect”.

Consider `CCN(c1ccccc1)c1cc(NC)[n+](C)c(C)n1` [ZD7288], for which the “Axon Compartment (protection of NGF-deprived axons)” value (from here on “Axon Compartment”) in assay [2] (setting [5]) is reported as “No (3)”. The “Cell Body Compartment (protection of NGF-deprived axons)” value (shortened to “Cell Body Compartment”) in assay [2] (setting [6]) is “Yes (3)”.

Take `Cc1c2oc3c(C)ccc(C(=O)N[C@@H]4C(=O)N[C@H](C(C)C)C(=O)N5CCC[C@H]5C(=O)N(C)CC(=O)N(C)[C@@H](C(C)C)C(=O)O[C@@H]4C)c3nc-2c(C(=O)N[C@@H]2C(=O)N[C@H](C(C)C)C(=O)N3CCC[C@H]3C(=O)N(C)CC(=O)N(C)[C@@H](C(C)C)C(=O)O[C@@H]2C)c(N)c1=O` [Actinomycin D] (I: T[dV]P[Sar][NMeV] / II: T[dV]P[Sar][NMeV]; ester I:1-I:C, II:1-II:C; linker I:N-II:N via Actinocin(9to1)): the “formation of varicosities in locally NGF-deprived axons” value in assay [2] is recorded as “large number of axons with varicosities, as well as fragmented axons”. The “Axon Compartment” value in assay [2] (inhibitor 15 μM in axon compartment) is on record as “No (4)”; in assay [2] (inhibitor 15 μM in axon compartment, listed as Act D) it was “failed to prevent degeneration”. Moreover, the “Cell Body Compartment” value in assay [2] (inhibitor 15 μM in cell body compartment) is recorded as “Yes (4)”; in assay [2] (inhibitor 15 μM in cell body compartment, listed as Act D), “did not degenerate; also recorded: protected from local degeneration”.

Regarding `C=C[C@@]1(C)CC(=O)[C@]2(O)[C@@]3(C)[C@@H](O)CCC(C)(C)[C@@H]3[C@H](O)[C@H](OC(C)=O)[C@@]2(C)O1` [Forskolin], the “Axon Compartment” value in assay [2] (inhibitor 3 μM in axon compartment) is listed as “Yes (2)”. Moreover, the “Cell Body Compartment” value in assay [2] (inhibitor 3 μM in cell body compartment) is given as “Yes (2)”.

On to `O=C1NC(=O)C(c2cn(CCCO)c3ncccc23)=C1c1cnccn1` [GSK3 inhibitor XI], for which the “Axon Compartment” value in assay [2] (inhibitor 30 μM in axon compartment, anti-NGF on axons 28 hours, number in parentheses not explained) is “No (2)”. Further, the “Cell Body Compartment” value in assay [2] (inhibitor 30 μM in cell body compartment, anti-NGF on axons 28 hours, number in parentheses not explained) was “Yes (2)”.

For the molecule `C[C@@H]1C[C@@H]([C@H](O)CC2CC(=O)NC(=O)C2)C(=O)[C@@H](C)C1` [Cycloheximide], the “Axon Compartment” value in assay [2] (setting [5]) is on record as “No (2)”. Besides, in assay [2] (setting [6]), the “Cell Body Compartment” value is given as “Yes (2)”.

Regarding `OC(CN1CCNCC1)Cn1c2ccc(Br)cc2c2cc(Br)ccc21` (stereo not shown) [Bax Channel Blocker], the “Comments (observations on compounds found to protect against neurodegeneration)” value (“Comments” for short) in assay [3] is given as “Cell bodies detach”.

Turning to `C=C[C@@]1(C)CC(=O)[C@]2(O)[C@@]3(C)[C@@H](O)CCC(C)(C)[C@@H]3[C@H](OC(=O)CCN(C)C)[C@H](OC(C)=O)[C@@]2(C)O1` [NKH 477], the “Comments” value in assay [3] was “Partial”.

Regarding `C[C@@H](NC(=O)/C(C#N)=C/c1ccc(O)c(O)c1)c1ccccc1` [Tyrphostin B44], the “Comments” value in assay [3] is listed as “Partial”.

As to `O=C1c2ccccc2-c2n[nH]c3cccc1c23` [SP600125], the “Axon Compartment” value in assay [2] (setting [5]) and in assay [2] (inhibitor 10 μM in axon compartment) was “Yes (1)” each time. For the same molecule, the “Cell Body Compartment” value in assay [2] (setting [6]) and in assay [2] (inhibitor 10 μM in cell body compartment) was “Yes (1)” each time. The “protection of cerebellar granule neurons from serum deprivation/KCl reduction” value in assay [4] is listed as “protect”.

As to `N#C/C(=C1/Nc2ccccc2S1)c1ccnc(NCCc2cccnc2)n1` [JNKV], in assay [1], the “concentration at which most protective” value amounted to 5 µM and the “protection of DRG explants from NGF-dependent degeneration” value is “able to protect”.

On to `COc1ccc(CNC(=O)Nc2ncc([N+](=O)[O-])s2)cc1` [AR-A014418], for which the “Axon Compartment” value in assay [2] (inhibitor 20 μM in axon compartment) is given as “No (1)”. In addition, in assay [2] (inhibitor 20 μM in cell body compartment), the “Cell Body Compartment” value is reported as “Yes (1)”.

Take `C[S+]([O-])c1ccc(-c2nc(-c3ccc(F)cc3)c(-c3ccncc3)[nH]2)cc1.Cl` (stereo not shown) [SB 203580 HCl]: the “Comments” value in assay [3] is “Partial”.
